Converted amounts (≈) assume the structure as drawn. Where two headings read alike, the source gives them in different places.
Assays:
[1] = test system: HCV Genotype 4; test: Phase I/IIa Group D: HCV RNA reduction, 3-day dosing, Genotype 4; type: in vivo, hepatitis C virus; conditions: n = 4
Description: (§1) The phase I/IIa study was designed to evaluate safety and tolerability, pharmacokinetics (PK), food effect, and antiviral activity with regard to the Compound. The key safety parameters that were evaluated in the trial include adverse events (AEs), physical examination, vital signs, 12-lead electrocardiogram (ECG), and standard safety laboratory tests. The key antiviral activity parameters that were evaluated in the trial include changes in plasma HCV RNA and emergence of resistance mutations. The key pharmacokinetic parameters that were evaluated in the trial include plasma and urine concentrations of the Compound.
(§2) In the phase I/IIa study, plasma HCV RNA was quantitated using a validated commercial assay (COBAS® TAQMAN®) with a lower limit of quantitation of 25 IU/mL. HCV RNA genotyping was performed at Baseline using the Versant HCV Genotype Assay (LiPA) 2.0.
(§3) In Group D, the Compound was evaluated in an randomized, double-blind, placebo-controlled, parallel dosing study in 30 treatment-naive, genotypes 2, 3, and 4 HCV-infected subjects.
(§4) For all cohorts, dosing was under fasted in this study.

[2] = test system: HCV Genotype 1, 2, and 3; test: Phase I/IIa Group B: antiviral activity of single dose across genotypes; type: in vivo, hepatitis C virus; conditions: Genotype 1, 2, and 3 HCV-infected subjects
Description: as §1, §2
(§5) In Group B, the Compound was evaluated in an open-label, single day study in 18 subjects with chronic HCV Genotype 1, 2, or 3 infection. […] For all cohorts, dosing was under fasted in this study.

[3] = test system: HCV Genotype 2; test: Phase I/IIa Group B: plasma HCV RNA reduction after single dose, Genotype 2; type: in vivo, hepatitis C virus; conditions: 1 subject
Description: as §1, §2, §5

[4] = clinical; conditions: human, in vivo
Description: as §1, §2, §5

[5] = test system: genotype 2 replicon with L31M substitution (NS5A M31); test: HCV replicon model, resistance; type: cell-based, hepatitis C virus
[6] = Phase I/IIa Groups C and D: safety and tolerability; type: in vivo, human
Description: as §1
In Group C, the Compound was evaluated in a randomized, double-blind, placebo-controlled, parallel dosing study in 34 treatment-naive, genotype 1 HCV-infected subjects.
as §3, §4

[7] = test system: HCV Genotype 3; test: Phase I/IIa Group B: plasma HCV RNA reduction after single dose, Genotype 3; type: in vivo, hepatitis C virus; conditions: 1 subject
Description: as §1, §2, §5

[8] = 28-day toxicity study in cynomolgus monkeys
Description: (§6) Safety margins were calculated based upon proposed human doses in the first-in-human trial and human equivalent dose (HED) calculations derived from the two 28-day toxicology studies in mice and monkeys. This approach is consistent with the United States Food and Drug Administration Guidance for Industry entitled “Estimating the Maximum Safe Starting Dose in Initial Clinical Trials for Therapeutics in Adult Healthy Volunteers,” July 2005.

[9] = 28-day toxicity study in mice
Description: as §6

[10] = test system: least susceptible HCV genotype; test: Protein-binding adjusted EC90; type: cell-based; conditions: Hepatitis C virus, read-out: protein-binding adjusted EC90
[11] = in vivo
Description: as §1
The Compound was first evaluated in a randomized, double-blind, placebo-controlled, sequential dose escalation study in 48 healthy subjects. For each cohort, there were 6 subjects to receive the Compound and 2 subjects to receive placebo. Except cohort 5a, the Compound was administered under fasted conditions.
as §5

[12] = 28 days, doses up to 250 mg/kg/day
[13] = proposed human dose 1 mg/subject/day (0.02 mg/kg/day)
[14] = proposed human dose 5 mg/subject/day (0.08 mg/kg/day)
[15] = proposed human dose 10 mg/subject/day (0.17 mg/kg/day)
[16] = proposed human dose 25 mg/subject/day (0.42 mg/kg/day)
[17] = proposed human dose 50 mg/subject/day (0.83 mg/kg/day)

Which “Mean (Range) Maximal HCV RNA Reduction from Baseline” value ([1]; 50 mg BID x 3 days) does the source give for COC(=O)N[C@H](C(=O)N1CCC[C@H]1c1nc2cc(-c3csc4c(-c5ccc(-c6cnc([C@@H]7CCCN7C(=O)[C@H](NC(=O)OC)c7ccccc7)[nH]6)cc5)csc34)ccc2[nH]1)C(C)C [the Compound, [(S)-1-((S)-2-{6-[6-(4-{(S)-2-[1-((R)-2-methoxycarbonylamino-2-phenyl-acetyl)-pyrrolidin-2-yl]-3H-imidazol-4-yl}-phenyl)-thieno[3,2-b]thiophen-3-yl]-1H-benzoimidazol-2-yl}-pyrrolidine-1-carbonyl)-2-methyl-propyl]-carbamic acid methyl ester] here?
Its value is 3.9 (3.4-4.5) log10 IU/mL.

And the “Mean (Range) Maximal HCV RNA Reduction from Baseline” value ([1]; 100 mg QD x 3 days)?
The value was 3.6 (2.3-4.6) log10 IU/mL.

And the antiviral activity [2]?
The antiviral activity was “potent pan-genotypic antiviral activity”.

What about the “Maximum Viral Load Reduction after Single Dose” value (“Maximum Viral Load Reduction” for short) ([3]; 25 mg single dose) of the same compound?
The value was 0.4 log10 IU/mL.

What about the “Maximum Viral Load Reduction” value ([3]; 50 mg single dose) of the same compound?
The value was 3.2 log10 IU/mL.

And the “Maximum Viral Load Reduction” value ([3]; 100 mg single dose)?
Its value is 3.5 log10 IU/mL.

And the exposure versus dose [4]?
Its exposure versus dose is “Dose proportional exposure”.

And the AUC(0-inf) ([4]; 1 mg)?
The AUC(0-inf) was 8 ± 5.8 ng·h/mL.

What about the Cmax ([4]; 1 mg) of the same compound?
The Cmax was 0.5 ± 0.4 ng/mL.

And the Tmax ([4]; 1 mg)?
Its Tmax is 4 h.

What about the half-life ([4]; 1 mg) of the same compound?
The half-life was 13 ± 6 h.

And the AUC(0-inf) ([4]; 5 mg)?
The AUC(0-inf) was 39 ± 14.5 ng·h/mL.

What about the Cmax ([4]; 5 mg) of the same compound?
Its Cmax is 2.2 ± 1.1 ng/mL.

What about the Tmax ([4]; 5 mg) of the same compound?
The Tmax was 4 h.

What about the half-life ([4]; 5 mg) of the same compound?
Its half-life is 13 ± 0.5 h.

What about the AUC(0-inf) ([4]; 10 mg) of the same compound?
Its AUC(0-inf) is 188 ± 3.7 ng·h/mL.

And the Cmax ([4]; 10 mg)?
Its Cmax is 9 ± 1.2 ng/mL.

What about the Tmax ([4]; 10 mg) of the same compound?
The Tmax was 3 h.

And the half-life ([4]; 10 mg)?
The half-life was 24 ± 5.9 h.

And the AUC(0-inf) ([4]; 25 mg)?
Its AUC(0-inf) is 216 ± 80.6 ng·h/mL.

What about the Cmax ([4]; 25 mg) of the same compound?
Its Cmax is 13.8 ± 3.8 ng/mL.

What about the Tmax ([4]; 25 mg) of the same compound?
The Tmax was 3.5 h.

What about the half-life ([4]; 25 mg) of the same compound?
The half-life was 18 ± 3.8 h.

What about the AUC(0-inf) ([4]; 50 mg) of the same compound?
Its AUC(0-inf) is 576 ± 299 ng·h/mL.

And the Cmax ([4]; 50 mg)?
The Cmax was 35.2 ± 16.5 ng/mL.

And the Tmax ([4]; 50 mg)?
The Tmax was 4 h.

What about the half-life ([4]; 50 mg) of the same compound?
The half-life was 22 ± 1.8 h.

And the AUC(0-inf) ([4]; 100 mg)?
The AUC(0-inf) was 1340 ± 282 ng·h/mL.

And the Cmax ([4]; 100 mg)?
The Cmax was 95 ± 20.4 ng/mL.

And the Tmax ([4]; 100 mg)?
Its Tmax is 4 h.

And the half-life ([4]; 100 mg)?
The half-life was 19 ± 2 h.

And the “resistance conferred by L31M substitution (NS5A M31 polymorphism)” value [5]?
Its value is 75 fold.

And the “intensity of adverse events” value ([6]; Groups C and D)?
Its value is “mild or moderate”.

And the “most common adverse events” value ([6]; Groups C and D)?
Its value is “headache, constipation, and nausea”.

What about the “discontinuations and serious adverse events” value ([6]; Groups C and D, 25 to 100 mg/day x 3 days) of the same compound?
The value was “no safety-related discontinuations or serious adverse events”.

What about the safety and tolerability ([6]; daily doses up to 100 mg for 3 days) of the same compound?
The safety and tolerability was “safe and well tolerated”.

And the “Maximum Viral Load Reduction” value ([7]; 25 mg single dose)?
Its value is 2.2 log10 IU/mL.

And the “Maximum Viral Load Reduction” value ([7]; 50 mg single dose)?
Its value is 3.7 log10 IU/mL.

What about the “Maximum Viral Load Reduction” value ([7]; 100 mg single dose) of the same compound?
Its value is 3.3 log10 IU/mL.

What about the “no observable effect level (NOEL)” value ([8]; 28-day monkey study) of the same compound?
Its value is 250 mg/kg/day.

What about the toxicological target [8, 12] of the same compound?
Its toxicological target is “did not define any toxicological target”.

What about the “increase in plasma levels with dose” value ([8]; cynomolgus monkey, in vivo) of the same compound?
Its value is “little or no increase”.

And the “Margin of Safety, Monkey” value [8, 13]?
The value was 807 fold.

What about the “Margin of Safety, Monkey” value [8, 14] of the same compound?
Its value is 204 fold.

And the “Margin of Safety, Monkey” value [8, 15]?
The value was 95 fold.

And the “Margin of Safety, Monkey” value [8, 16]?
Its value is 38 fold.

What about the “Margin of Safety, Monkey” value [8, 17] of the same compound?
The value was 19 fold.

What about the “no observable effect level (NOEL)” value ([9]; 28-day mouse study) of the same compound?
Its value is 150 mg/kg/day.

And the toxicological target [9, 12]?
Its toxicological target is “did not define any toxicological target”.

What about the NOAEL at 28 days ([9]; both, mouse, in vivo) of the same compound?
Its NOAEL at 28 days is 250 mg/kg/day.

And the liver histology ([9]; males and females, 250 mg/kg/day)?
Its liver histology is “minimal to mild diffuse hypertrophy of centrilobular hepatocytes”.

And the “increase in plasma levels with dose” value ([9]; mouse, in vivo, 150 mg/kg/day)?
The value was “little or no increase”.

What about the “Mean ALT values at Day 29” value ([9]; mouse, in vivo, 250 mg/kg/day) of the same compound?
The value was 88.4 U/L.

What about the “Margin of Safety, Mouse” value [9, 13] of the same compound?
Its value is 610 fold.

What about the “Margin of Safety, Mouse” value [9, 14] of the same compound?
Its value is 153 fold.

And the “Margin of Safety, Mouse” value [9, 15]?
The value was 72 fold.

And the “Margin of Safety, Mouse” value [9, 16]?
Its value is 29 fold.

And the “Margin of Safety, Mouse” value [9, 17]?
Its value is 15 fold.

What about the EC90 [10] of the same compound?
Its EC90 is about 2.3 ng/mL (≈ 2.6 nM).

And the dose-limiting toxicity [11]?
Its dose-limiting toxicity is “no subject met protocol-defined criteria for a dose-limiting toxicity”.

And the “intensity of adverse events” value [11]?
The value was “mild to moderate”.

From patent US20150224085A1, “METHOD OF ADMINISTERING A 5,5-FUSED HETEROARYLENE HEPATITIS C VIRUS INHIBITOR FOR TREATING OF PREVENTING HEPATITIS C VIRUS INFECTION” (priority 2012, published 2015)
